According to ChEMBL document CHEMBL6134856, “Rapid Response Antimicrobial Peptide Design Strategy Driven by Meta-Learning for Emerging Drug-Resistant Pathogens” (J Med Chem, 2025):

Tests used:
Acinetobacter baumannii [1] = experiment: Antimicrobial activity against SAM/CTX/AK/CRO/CN drugs-resistant Acinetobacter baumannii 0004 assessed as inhibition of bacterial growth incubated for approximately 18 hrs by resazurin dye based broth microdilution assay; type: functional
[2] = Hemolytic activity in Sprague-Dawley rat erythrocytes incubated for 1 hr by multifunctional microplate reader analysis; type: toxicity, cell-based, Erythrocyte; settings: for HC50 at 1 h: Sprague-Dawley, erythrocytes; for HC5: erythrocyte, 1 h
Candida albicans = experiment: Antimicrobial activity against Candida albicans ATCC 14053 assessed as inhibition of bacterial growth incubated for approximately 18 hrs by resazurin dye based broth microdilution assay; type: functional
Staphylococcus aureus = experiment: Antimicrobial activity against Staphylococcus aureus ATCC 25923 assessed as inhibition of bacterial growth incubated for approximately 18 hrs by resazurin dye based broth microdilution assay; type: functional
Acinetobacter baumannii [3] = experiment: Antimicrobial activity against SAM/CTX/CRO/CN drugs-resistant Acinetobacter baumannii 0320 assessed as inhibition of bacterial growth incubated for approximately 18 hrs by resazurin dye based broth microdilution assay; type: functional
Acinetobacter baumannii [4] = experiment: Antimicrobial activity against CTX/CRO/CN drugs-resistant Acinetobacter baumannii 0214 assessed as inhibition of bacterial growth incubated for approximately 18 hrs by resazurin dye based broth microdilution assay; type: functional
Acinetobacter baumannii [5] = experiment: Antimicrobial activity against SAM/CTX/AK/CRO/CN drugs-resistant Acinetobacter baumannii 0101 assessed as inhibition of bacterial growth incubated for approximately 18 hrs by resazurin dye based broth microdilution assay; type: functional
Acinetobacter baumannii [6] = experiment: Antimicrobial activity against SAM-resistant Acinetobacter baumannii 0413 assessed as inhibition of bacterial growth incubated for approximately 18 hrs by resazurin dye based broth microdilution assay; type: functional
Acinetobacter baumannii [7] = experiment: Antimicrobial activity against CTX/AK/CRO drugs-resistant Acinetobacter baumannii 0110 assessed as inhibition of bacterial growth incubated for approximately 18 hrs by resazurin dye based broth microdilution assay; type: functional

Substance	MIC (Acinetobacter baumannii [1])	HC50 at 1 h [2]	HC5 [2]	MIC (Candida albicans)	MIC (Staphylococcus aureus)	MIC (Acinetobacter baumannii [3])	MIC (Acinetobacter baumannii [4])	MIC (Acinetobacter baumannii [5])	MIC (Acinetobacter baumannii [6])	MIC (Acinetobacter baumannii [7])
H-KRIWRKILWWIKWR-OH	8 µM									
H-LWKILKKIWRVLKNWN-OH	4 µM	35.9 µM	7.59 µM	32 µM	8 µM					
H-KLKRWLVWLIRKLW-OH	16 µM									
H-RIWVLIYRWYRKWY-OH	32 µM									
H-RLIKIWWIYRRKWR-OH	128 µM									
H-KWKIFKRIVGRILRYLR-OH	4 µM	15.7 µM	1.47 µM	> 32 µM	8 µM					
H-AWKAKLKRLAIAWKR-OH	4 µM	> 256 µM	> 256 µM	8 µM	> 32 µM	4 µM	4 µM	8 µM	4 µM	8 µM
H-IWLAVWKGLLKRWLH-OH	2 µM	10.5 µM	1.17 µM	16 µM	2 µM					
H-GLWKRWKKVLWGAKNKI-OH	2 µM	> 256 µM	> 256 µM	8 µM	16 µM	2 µM	4 µM	4 µM	2 µM	4 µM
H-KIRWLLYWIRRKRL-OH	16 µM									
H-KWFKKLPKILHKLAKKW-OH	2 µM	294 µM	38.67 µM	> 32 µM	2 µM	2 µM	4 µM	2 µM	2 µM	2 µM
H-RLWKIWWKIWRVLI-OH	16 µM									
H-KWARRLVYLIANYWKKR-OH	2 µM	117 µM	14.63 µM	> 32 µM	> 32 µM					
H-FWKKVFKWIWRVLHNFG-OH	8 µM	12.6 µM	1.28 µM							
H-VLAANRLVRRLAQKIAR-OH	32 µM	> 256 µM	> 256 µM	16 µM	> 32 µM					
H-RIRFKWRWWMRIRLKWY-OH	16 µM	> 256 µM	> 256 µM	> 32 µM	> 32 µM					
H-WFKKLLKLALKWAKYA-OH	4 µM	13.1 µM	1.46 µM	> 32 µM	2 µM					
H-RRRLILWILWRRLR-OH	4 µM	166 µM	10.09 µM	> 32 µM	8 µM					
H-RQIKIWFQNRRWGLQLK-OH	16 µM	> 256 µM	> 256 µM	> 32 µM	> 32 µM	16 µM	16 µM	16 µM	8 µM	16 µM
H-RWRKIWFLWRYKIW-OH	128 µM									
H-GWAKRLVQRLADWLRKF-OH	2 µM	43.9 µM	7.22 µM	> 32 µM	8 µM					
H-RLWKIWLVWIRWRNQK-OH	16 µM	330 µM	27.41 µM	> 32 µM	> 32 µM					
